Legend:
[1] = tested on: lung adenocarcinoma cell line (A549); experiment: In vitro anti-tumor activity test (CCK8), lung adenocarcinoma cell line; assay type: cell-based; conditions: A549 cells, 48 h incubation, CCK8, absorbance 450 nm
Procedure: (§1) The obtained Artemisia Rupestris complex salts were subjected to an in vitro anti-tumor activity test, in which the in vitro inhibitory activity of the Artemisia Rupestris complex salts on the lung adenocarcinoma cell line (A549) and cervical carcinoma cell line (Hela) was mainly researched. The specific test process was illustrated by the process for testing the lung adenocarcinoma cell line (A549):
(§2) The prepared Artemisia Rupestris complex salt was weighed, added into a 5 mL plastic centrifuge tube and diluted to
(§3) 1 mL with DMSO, to obtain a test sample at an initial concentration. Then the test sample at an initial concentration was serially diluted with DMSO to obtain test samples in 5 different concentration gradients in sequence, which were stored in a refrigerator at 4° C. for later use.
(§4) The lung adenocarcinoma cell line (A549) was incubated in an incubator for 24 h under the conditions of 37° C., 5% CO2, and saturated humidity. When the cells were in logarithmic growth phase, the culture supernatant was discarded, and the residue was digested with 0.25% trypsin-EDTA solution. Then, the digestion was terminated with high glucose medium. The cells were seeded in a 96-well plate with a cell density of 5000 cells/well. The 96-well plate was incubated in an incubator for 24 h. Then the cell culture supernatant in the 96-well plate was discarded. 100 μL of high glucose medium was added to the 96-well plate, and test samples at different concentrations were added to wells at 1 μL/well (5 duplicate wells were set for each concentration). After the plate was incubated in an incubator for 48 h under the conditions of 37° C., saturated humidity and 5% CO2, 10 μL of CCK8 was added to each well, and the plate was then incubated in the incubator at 37° C. for 1-4 h. The absorbance of each well at 450 nm was measured on a multifunctional microplate reader. Inhibition rate %=[(ODcontrol cells−ODtreatment cells)/(ODcontrol cells−ODblank)]×100. Negative control was a mixed solution of Vhigh glucose medium and VDMSO at a ratio of 10:1.

[2] = tested on: cervical carcinoma cell line (Hela); experiment: In vitro anti-tumor activity test (CCK8), cervical carcinoma cell line; assay type: cell-based; conditions: Hela cells, 48 h incubation, CCK8, absorbance 450 nm
Procedure: as §1, §2, §3, §4
The process for testing the inhibition of those compounds on the cervical cancer cell line (Hela) was the same as above.

| Molecule | IC50 ([1]; Homo sapiens) [µM] | IC50 ([2]; Homo sapiens) [µM] | IC50 [1] [µM] | IC50 [2] [µM] | also measured |
| --- | --- | --- | --- | --- | --- |
| O=C1CCC[C@@H]2[C@H]3CCCN4CCC[C@@H](CN12)[C@@H]34 [Matrine] | 6370 | 774 |  |  |  |
| O=C1CCC[C@@H]2[C@H]3CCC[N+]4([O-])CCC[C@@H](CN12)[C@@H]34 (stereo partly shown) [Oxymatrine] |  | 0.95 |  |  |  |
| C=C(C(=O)O)[C@H]1CC[C@H](C)[C@@H]2CC(=O)C(C)=C2C1 [Rupestonic acid] |  |  |  |  | IC50 (μM) A549 [1]: Inactive; IC50 (μM) Hela [2]: Inactive |
| O=C1C=CC[C@@H]2[C@H]3CCCN4CCC[C@@H](CN12)[C@@H]34 [Sophocarpine] | 241 | 122 |  |  |  |
| O=C1CCC[C@@H]2[C@H]3CCCN4CCC[C@H](CN12)[C@@H]34 [Sophoridine] | 16000 | 1490 |  |  |  |
| complex salt of rupestonic acid and matrine |  |  | 1.49 | 11.8 |  |
| complex salt of rupestonic acid and oxymatrine |  |  |  | 25.2 |  |
| complex salt of rupestonic acid and sophocarpine |  |  | 714 | 115 |  |
| complex salt of rupestonic acid and sophoridine |  |  | 61.3 | 17.9 |  |

— patent publication US12024489B2, “Complex salt of rupestonic acid and alkaloid, preparation method therefor and use thereof” (XIAMEN INSTITUTE OF RARE EARTH MATERIALS, priority 2022, dated 2024)
